The values below come from US4341798A, “Amide derivatives of p-isobutyl-phenyl-propionic acids and related pharmaceutical compositions” (Laboratori Prophin S.p.A., priority 1980, dated 1982).

A short description of one data set: Solubility. The format is physicochemical.
Data set [1] can be described thus: (A) Inhibition of the oedema induced by carragenin in the rat paw. Particulars: for ED50: rat paw. The class given is in vivo. An excerpt: (A) Inhibition of the oedema induced by carragenin in the […]. Arch. Int. Pharmacodyn. 99,474. 1954). […] The subject oedema was induced in the rat and in the control animals caused a volume increase of the paw by 57.55%.

The conditions of data set [2]: for Mortality in 28 days: male and female rats.
Data set [3] can be described thus: in vivo. The note with it: rat.
The conditions of data set [4]: rat.
A short description of data set [5]: (B) Inhibition of the arthritis induced by Freund adjuvant in the rat. The format is in vivo. The text has this:
(B) Inhibition of the arthritis induced by Freund adjuvant in the rat. (Newbould B.B. Brit. Journ. of Pharmacol. 21,127, 1963).

The nature of data set [6]: (D) Analgesic activity in the Flinch-jump test in the rat. The class given is in vivo. An excerpt:
(D) Analgesic activity in the Flinch-jump test in the rat.
(Turner R. A. "Screening methods in Pharmacology" Accademic Press--New York 1965).

Data set [7] in a line: (C) Analgesic activity on the stretching induced by acetic acid in the mouse. The format is in vivo. The text has this: (C) Analgesic activity on the "stretching" induced by acetic acid in the mouse.
(Fennessy M. R., Lee C. R. "Methods in Narcotic Research" Eds. Ehrenpreise Neidle Dekker--New York 1975).

Data set [8] is described as follows: Oedema induced by egg white in the rat (acute inflammation). Particulars: 100 mg/kg p.o., controls 20. The format is in vivo. The text has this:
(§1) The anti-inflammatory activity has been tested by the classic tests of the oedema induced by kaolin and egg white, which repeat two significant and different phases in the pathogenesis of the inflammatory process.
(§2) The kaolin, injected in the tibio-tarsal connection of the rat, gives place to a chronic inflammation, whereas the egg white, injected in the subplantar area of the rat, causes an acute inflammatory state.

Data set [9] in a line: Oedema induced by kaolin in the rat (chronic inflammation). The class given is in vivo. The note with it: 100 mg/kg p.o., controls 13.
Description: as §1, §2

The nature of data set [10]: Acute toxicity by intraperitoneal route in the mouse. The note with it: in vivo, ip.
The nature of data set [11]: Therapeutical indexes (TD50 of 28 day subacute toxicity versus ED50 of tests A-D). The note with it: TD50 (28 days) versus ED50 of tests A-D. The format is in vivo.
The nature of data set [12]: Teratogenic or embryotoxic action in the rabbit. The format is in vivo.
Data set [13] can be described thus: in vivo. Particulars: rat, ip.
A short description of data set [14]: Teratogenic or embryotoxic action in the mouse. The class given is in vivo.
Data set [15] can be described thus: Acute toxicity by oral route in the rat. The class given is in vivo.
Data set [16] is described as follows: Acute toxicity per os in the mouse. The class given is in vivo. An excerpt: The compounds of the invention have been subjected to pharmacological tests, showing that they have a modeste or even negligible toxicity.
The mark [17] stands for this setting: molecular weight taken into consideration, read-out: ED50, inhibition of carragenin oedema (molar basis).
The mark [18] stands for this setting: read-out: ED50, inhibition of carragenin oedema.
Where [19] appears, read: rat, molar basis, read-out: ED50, Freund adjuvant arthritis (molar basis).
[20] abbreviates: Flinch-jump test, rat, read-out: ED50, dose causing a 50% increase of the algogenic stimulus.
The mark [21] stands for this setting: rat, molar basis, read-out: ED50, Flinch-jump test (molar basis).
Where [22] appears, read: mouse, molar basis, read-out: ED50, stretching induced by acetic acid (molar basis).
[23] abbreviates: mouse, read-out: ED50, stretching induced by acetic acid.

Where “and” joins values, the source holds several entries; their conditions need not be identical. Equal entries are not always repeated. Where two headings read alike, the source gives them in different places. Where only a bound is given, the exact number is not on record here.

As to `CC(C)Cc1ccc(C(C)C(=O)NC(CCC(=O)O)C(=O)O)cc1` (stereo not shown) [glutamic amide of the p-isobutyl-phenyl-propionic acid], the “solubility” value in “Solubility” was “not soluble in water, diluted HCl and cyclohexane”.

As usually defined, the ED50 is the dose at which the effect has come halfway, by size or by number of responders. `CC(C)Cc1ccc(C(C)C(=O)O)cc1` (stereo not shown) [Ibuprofen, p-isobutyl-phenyl-propionic acid]: the ED50 in data set [1] (setting [17]) was 820 µmol/kg; in data set [1] (setting [18]), 170 mg/kg; in data set [5] (setting [19]), 300 µmol/kg; in data set [6] (setting [20]), 108 mg/kg; in data set [6] (setting [21]), 520 µmol/kg; in data set [7] (setting [22]), 500 µmol/kg. Besides, the ED50 in data set [7] (setting [23]) was 105 mg/kg. Moreover, the “Mortality in 28 days” value is on record as 0/10 in [2] (25 mg/kg), 3/10 in data set [2] (50 mg/kg), 4/10 in [2] (100 mg/kg) and 5/10 in [2] (200 mg/kg). For the same compound, the TD50 at 672 h in “in vivo [3]” came out at 590 µmol/kg. Besides, the “Mortality after 7 days” value is given as 0/6 in data set [4] (250 mg/kg intraperitoneal), 2/6 in data set [4] (360 mg/kg intraperitoneal), 5/6 in data set [4] (520 mg/kg intraperitoneal) and 6/6 in [4] (750 mg/kg intraperitoneal).

With “lysinamide of p-isobutyl-phenyl-propionic acid”, the “Egg white test increase %” value in data set [8] was determined as 11 ± 5.6%. Further, the “Kaolin test increase %” value in [9] worked out at 7.1 ± 5.3%.

Take `COc1ccc2cc([C@H](C)C(=O)O)ccc2c1` [Naproxene, d-2(6'-methoxy-2'-naphtyl)-propionic acid]: the ED50 turned out to be 210 µmol/kg in data set [1] (setting [17]) and 47.9 mg/kg in data set [1] (setting [18]). Further, the “Mortality in 28 days” value in [2] (25 mg/kg) is reported as 2/10; in [2] (50 mg/kg), 6/10; in [2] (100 mg/kg), 10/10.

In general, LD50 refers to the dose at which mortality reaches 50%. Low readings indicate greater toxicity, high ones lower toxicity. With `CC(C)Cc1ccc(C(C)C(=O)Nc2cccc(C(F)(F)F)c2)cc1` (stereo not shown) [BT-03, p-isobutyl-phenyl-propionamide of metatrifluorotoluidine], the LD50 is 1190 mg/kg in data set [10] (female mice); 940 mg/kg in data set [10] (male mice); 1760 mg/kg in the data set “in vivo [13]” (LD50 by intraperitoneal route in the rat, female rats); 1620 mg/kg in “in vivo [13]” (LD50 by intraperitoneal route in the rat, male rats); 1200 ± 264 mg/kg in the data set “in vivo [13]” (LD50 ± f.l. (P 0,05), intraperitoneal, f.l. = fiduciary limits); > 4000 mg/kg in [15] (rat, in vivo, po, 4000 mg/kg). Also, in [11], the “therapeutical index compared with Ibuprofen” value is given as “A constant advantage”. Besides, the “teratogenic or embryotoxic action” value in data set [12] and in data set [14] was “have not demonstrated any teratogenic or embryotoxic action” in each case. For the same compound, the “Egg white test increase %” value in data set [8] came to 10 ± 5.1%. Moreover, the “times less active than Naproxene” value in [1] (molar basis) was “about 1.4 times”. Also, the “times more active than Ibuprofen” value in data set [1] (molar basis) is listed as 2.8 times; in data set [7] (molar basis) it was “about 1,4 times”. Moreover, the ED50 turned out to be 290 µmol/kg in data set [1] (setting [17]); 103 mg/kg in data set [1] (setting [18]); 87 mg/kg in data set [5] (Freund adjuvant, rat, read-out: ED50, dose which causes the volume increase of the paw to be reduced by 50%); 250 µmol/kg in [5] (setting [19]); 129 mg/kg in data set [6] (setting [20]); 370 µmol/kg in data set [6] (setting [21]). Further, the ED50 in data set [7] (setting [22]) turned out to be 350 µmol/kg; in [7] (setting [23]), 123 mg/kg. For the same compound, the “animals died during the test period” value in [2] (rat, in vivo, 200 mg/kg) is listed as “two”. This compound also returned a TD50 at 672 h in “in vivo [3]” of 660 µmol/kg. In addition, the “Kaolin test increase %” value in data set [9] is given as 7 ± 5.5%. In [4] (in vivo), the “Mortality after 7 days” value was 1/6 and 5/6 and 6/6. Moreover, the “acute toxicity” value in data set [15] (both by oral and by intraperitoneal route) was “very low acute toxicity”. The “activity with respect to Ibuprofen” value in data set [5] (proportionally to the administered doses) is “superior as regards the activity and of lower toxicity with respect to Ibuprofen”. Moreover, the “inhibition of lesions directly induced by Freund adjuvant in the injected paw” value in [5] (rat) is recorded as “inhibit the lesions directly induced by the Freund adjuvant in the injected paw”. Moreover, in data set [5] (rat), the “inhibition of the development of secundary lesions” value is “capable of inhibiting the development of the secundary lesions”. The “solubility” value in the data set “Solubility” is “insoluble in water and soluble in most organic solvents”. In [6] (molar basis), the “activity, times greater than that of the reference substance (Ibuprofen)” value was “about 1.4 times”. In [6] (rat), the “increase of the algogenic threshold” value is on record as “increase of the algogenic threshold, proportionally to the administered dose”. For the same compound, in data set [7] (mouse), the “inhibition of stretching” value was “does inhibit the stretching induced by acetic acid proportionally to the administered dose”. Further, in data set [16], the “LD50 by oral route in the mouse” value was “has not permitted as well to determine any LD50 value”.
